According to ChEMBL document CHEMBL1201862, “PubChem BioAssay data set” (2004):
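Interpolation was linear, between the two tested concentrations surrounding the appropriate level; five concentrations were tested over 48 hours in 96-well plates. GI50 = concentration required for 50% inhibition of growth.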 Activity calls are given as the source filed them. Cut-off read from the data, not from the text of the source: active = GI50 up to about 1.1 µM and inactive = higher.

Tests used:
Assay in all cases: NCI-60 cell line screen, 48 h
SW-620 = tested on: SW-620
COLO 205 = tested on: COLO 205
NCI-H460 = tested on: NCI-H460
OVCAR-3 = tested on: OVCAR-3
SK-MEL-5 = tested on: SK-MEL-5
PC-3 = tested on: PC-3
HOP-62 = tested on: HOP-62
CCRF-CEM = tested on: CCRF-CEM
SK-OV-3 = tested on: SK-OV-3
SR = tested on: SR
Malme-3M = tested on: Malme-3M
HCT-116 = tested on: HCT-116
NCI-H23 = tested on: NCI-H23
LOX IMVI = tested on: LOX IMVI
HCT-15 = tested on: HCT-15
OVCAR-5 = tested on: OVCAR-5
MDA-MB-435 = tested on: MDA-MB-435
SF-268 = tested on: SF-268
HCC 2998 = tested on: HCC 2998
Hs-578T = tested on: Hs-578T

Structure (SMILES) | GI50 (SW-620) | GI50 (COLO 205) | GI50 (NCI-H460) | GI50 (OVCAR-3) | GI50 (SK-MEL-5) | GI50 (PC-3) | GI50 (HOP-62) | GI50 (CCRF-CEM) | GI50 (SK-OV-3) | GI50 (SR) | GI50 (Malme-3M) | GI50 (HCT-116) | GI50 (NCI-H23) | GI50 (LOX IMVI) | GI50 (HCT-15) | GI50 (OVCAR-5) | GI50 (MDA-MB-435) | GI50 (SF-268) | GI50 (HCC 2998) | GI50 (Hs-578T)
CSC1=C(C)C(/C=N/Nc2ccc([N+](=O)[O-])cc2)=C(C)N(c2ccccc2)S1(=O)=O | > 100 µM (inactive) | 48.2 µM (inactive) | 16.6 µM (inactive) | 25.4 µM (inactive) | 17.4 µM (inactive) | 25.9 µM (inactive) | > 100 µM (inactive) | > 100 µM (inactive) | > 100 µM (inactive) | 17.8 µM (inactive) | 94.2 µM (inactive) | 6.47 µM (inactive) | 5.93 µM (inactive) | 19.6 µM (inactive) | 68.9 µM | > 100 µM (inactive) | > 100 µM (inactive) | > 100 µM (inactive) | 25.8 µM (inactive) | 
COc1nc2ccc(CNc3ccc(C(=O)O)cc3)cc2nc1OC | > 10 µM (inactive) | > 10 µM (inactive) | > 10 µM (inactive) | > 10 µM (inactive) | > 10 µM (inactive) | > 10 µM (inactive) | > 10 µM (inactive) | > 10 µM (inactive) | > 10 µM (inactive) |  | > 10 µM (inactive) | > 10 µM (inactive) | > 10 µM (inactive) | > 10 µM (inactive) | > 10 µM | > 10 µM (inactive) | > 10 µM (inactive) | > 10 µM (inactive) | > 10 µM (inactive) | > 10 µM (inactive)
CSc1nc2c(c(=O)n1C)N=C(c1ccc([N+](=O)[O-])cc1)CC(c1ccccc1)N2 (configuration not stated) | > 100 µM (inactive) | > 100 µM (inactive) | 90.6 µM (inactive) | > 100 µM (inactive) | > 100 µM (inactive) | > 100 µM (inactive) | > 100 µM (inactive) | 72.4 µM (inactive) | > 100 µM (inactive) | > 100 µM (inactive) | > 100 µM (inactive) | > 100 µM (inactive) | 99.8 µM (inactive) | 78.9 µM (inactive) |  | > 100 µM (inactive) | > 100 µM (inactive) |  | > 100 µM (inactive) | 
Cc1cc(C)nc(NS(=O)(=O)c2ccc(NNc3c4ccccc4nc4c(C(=O)Nc5ccc(S(=O)(=O)N=C(N)N)cc5)cccc34)cc2)n1 | 71.6 µM (inactive) | 36.1 µM (inactive) | 47.4 µM (inactive) | 31.8 µM (inactive) | 53.1 µM (inactive) | 31.6 µM (inactive) | > 100 µM (inactive) | 34.6 µM (inactive) | 24.8 µM (inactive) | 27.5 µM (inactive) | 76 µM (inactive) | 48 µM (inactive) | 55.8 µM (inactive) | 33.7 µM (inactive) | 63.4 µM | 25.1 µM (inactive) | 39.1 µM (inactive) | 45 µM (inactive) | 39.3 µM (inactive) | 
COc1cc2c(oc(=O)c3c4occc4cc(OC)c23)c2cccc(OCc3ccccc3)c12 | > 100 µM (inactive) | > 100 µM (inactive) | 44.9 µM (inactive) | > 100 µM (inactive) | > 100 µM (inactive) |  | > 100 µM (inactive) | > 100 µM (inactive) | > 100 µM (inactive) | > 100 µM (inactive) | 35.6 µM (inactive) | > 100 µM (inactive) | > 100 µM (inactive) | > 100 µM (inactive) | > 100 µM | > 100 µM (inactive) |  | > 100 µM (inactive) | > 100 µM (inactive) | 
COc1ccc(CCN2CCC(C#N)(c3ccc(OC)c(OC)c3)CC2)cc1OC | > 100 µM (inactive) | > 100 µM (inactive) | > 100 µM (inactive) | > 100 µM (inactive) | > 100 µM (inactive) |  | > 100 µM (inactive) | > 100 µM (inactive) | > 100 µM (inactive) | > 100 µM (inactive) | > 100 µM (inactive) | > 100 µM (inactive) | > 100 µM (inactive) | > 100 µM (inactive) | > 100 µM | > 100 µM (inactive) |  | > 100 µM (inactive) | > 100 µM (inactive) | 
COC(=O)c1cc(C(=O)OC)cc(-c2ccc3c(c2)-c2nc4c(c(-c5ccc(OC)cc5)c2CC3)CCc2ccc(-c3cc(C(=O)OC)cc(C(=O)OC)c3)cc2-4)c1 |  | > 100 µM (inactive) | > 100 µM (inactive) | > 100 µM (inactive) | > 100 µM (inactive) | > 100 µM (inactive) | > 100 µM (inactive) |  | > 100 µM (inactive) |  | > 100 µM (inactive) | > 100 µM (inactive) | > 100 µM (inactive) |  | > 100 µM | 16 µM (inactive) | > 100 µM (inactive) | > 100 µM (inactive) | > 100 µM (inactive) | 
Cc1c(S(=O)(=O)N/C(=N\O)Nc2ccc(Cl)cc2)sc2ccc(Cl)cc12 | 25.1 µM (inactive) | 15.9 µM (inactive) | 24.8 µM (inactive) | 11.3 µM (inactive) | 14.1 µM (inactive) | 17.1 µM (inactive) | 17.7 µM (inactive) | 38.4 µM (inactive) | 15.6 µM (inactive) |  | 18.5 µM (inactive) | 13.9 µM (inactive) | 18 µM (inactive) | 17 µM (inactive) | 16.6 µM | 18.1 µM (inactive) | 16.3 µM (inactive) | 18.1 µM (inactive) |  | 18.8 µM (inactive)
COc1ccc(/C=C2/C(=O)N(C(=O)c3ccccc3O)N=C2C)cc1OC | 3.27 µM (inactive) | 26.7 µM (inactive) | 0.34 µM (active) | 0.374 µM (active) | 0.982 µM (active) | 2.37 µM (inactive) | 1.99 µM (inactive) | 0.337 µM (active) | 1.21 µM (inactive) | 0.644 µM (active) | 0.849 µM (active) | 0.275 µM (active) | 0.248 µM (active) | 0.603 µM (active) | 0.64 µM | 3.9 µM (inactive) | 0.355 µM (active) | 0.556 µM (active) | > 24.3 µM (inactive) | 
CC(C)C1CN1CC(O)Cn1ccnc1[N+](=O)[O-] (configuration not stated) | > 100 µM (inactive) | > 100 µM (inactive) | > 100 µM (inactive) | > 100 µM (inactive) | > 100 µM (inactive) | > 100 µM (inactive) | > 100 µM (inactive) | > 100 µM (inactive) | > 100 µM (inactive) |  | 62.2 µM (inactive) | > 100 µM (inactive) | > 100 µM (inactive) |  | > 100 µM | > 100 µM (inactive) |  | > 100 µM (inactive) | > 100 µM (inactive) | > 100 µM (inactive)
Cc1ccc(S(=O)(=O)n2c3ccc(Br)cc3c3nc4ccccc4nc32)cc1 | > 100 µM (inactive) | > 100 µM (inactive) | > 100 µM (inactive) | > 100 µM (inactive) | > 100 µM (inactive) | > 100 µM (inactive) | > 100 µM (inactive) | > 100 µM (inactive) |  |  |  | > 100 µM (inactive) | > 100 µM (inactive) | > 100 µM (inactive) | > 100 µM | > 100 µM (inactive) | > 100 µM (inactive) | > 100 µM (inactive) | > 100 µM (inactive) | > 100 µM (inactive)
O=c1nc2occc2cn1C1CC(O)C(CO)O1 (configuration not stated) | > 100 µM (inactive) | > 100 µM (inactive) | > 100 µM (inactive) | > 100 µM (inactive) | > 100 µM (inactive) |  | > 100 µM (inactive) | > 100 µM (inactive) | > 100 µM (inactive) | > 100 µM (inactive) | > 100 µM (inactive) | > 100 µM (inactive) | > 100 µM (inactive) | > 100 µM (inactive) | > 100 µM | > 100 µM (inactive) |  | > 100 µM (inactive) | > 100 µM (inactive) | 
Cc1cc(C)c(N)c(C)c1N | > 100 µM (inactive) | > 100 µM (inactive) | > 100 µM (inactive) | > 100 µM (inactive) | > 100 µM (inactive) |  | > 100 µM (inactive) | > 100 µM (inactive) | > 100 µM (inactive) | > 100 µM (inactive) | > 100 µM (inactive) | > 100 µM (inactive) | > 100 µM (inactive) | > 100 µM (inactive) | > 100 µM | > 100 µM (inactive) |  | > 100 µM (inactive) | > 100 µM (inactive) | 
O=C(NC/C=C/Br)NC1CCNc2ccccc21 (configuration not stated) | 52.8 µM (inactive) | 18.7 µM (inactive) | 34.9 µM (inactive) | 47.2 µM (inactive) | 19.5 µM (inactive) | 37.3 µM (inactive) | 45.2 µM (inactive) | 36.4 µM (inactive) | > 100 µM (inactive) | 35 µM (inactive) | 31.6 µM (inactive) | 30.1 µM (inactive) | 16.8 µM (inactive) | 25.6 µM (inactive) | 37.3 µM | 55.3 µM (inactive) | 31.6 µM (inactive) | 77.4 µM (inactive) | 27.9 µM (inactive) | 
CCN(CCCN(CC)C(=O)Nc1c(C)cccc1C)C(=O)Nc1c(C)cccc1C | > 100 µM (inactive) | > 100 µM (inactive) | > 100 µM (inactive) |  | > 100 µM (inactive) | > 100 µM (inactive) | > 100 µM (inactive) |  | > 100 µM (inactive) |  | > 100 µM (inactive) | > 100 µM (inactive) | > 100 µM (inactive) | > 100 µM (inactive) | > 100 µM | > 100 µM (inactive) | > 100 µM (inactive) | > 100 µM (inactive) | > 100 µM (inactive) | > 100 µM (inactive)
CCOC(=O)c1nc[nH]c1/N=N/N(C)N | > 100 µM (inactive) | 36.6 µM (inactive) | 25.3 µM (inactive) | > 100 µM (inactive) | > 100 µM (inactive) | > 100 µM (inactive) | > 100 µM (inactive) |  | > 100 µM (inactive) |  | > 100 µM (inactive) | > 100 µM (inactive) | > 100 µM (inactive) | 92.5 µM (inactive) | 91.4 µM | > 100 µM (inactive) | > 100 µM (inactive) | > 100 µM (inactive) | > 100 µM (inactive) | > 100 µM (inactive)
